Results on 25 compounds are retold here after patent US20260374756A1, “HETEROCYCLIC COMPOUNDS AS INHIBITORS OF MONOACYLGLYCEROL LIPASE (MAGL)” (Hoffmann-La Roche Inc., priority 2022, published 2026).

The target in the experiment is T1, hMAGL (Homo sapiens, UniProt Q99685).
T1 sequence (Q99685 1-303): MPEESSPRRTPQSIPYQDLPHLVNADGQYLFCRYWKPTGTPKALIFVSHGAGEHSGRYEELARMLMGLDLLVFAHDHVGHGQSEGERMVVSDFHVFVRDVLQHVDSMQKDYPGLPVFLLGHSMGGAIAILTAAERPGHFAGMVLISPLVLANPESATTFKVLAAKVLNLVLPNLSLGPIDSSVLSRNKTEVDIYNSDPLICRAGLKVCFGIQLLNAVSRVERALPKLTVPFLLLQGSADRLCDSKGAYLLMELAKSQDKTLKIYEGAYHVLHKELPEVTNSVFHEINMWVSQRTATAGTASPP
The experiment in a line: 2-AG assay: MAGL inhibition, hydrolysis of 2-arachidonoylglycerol to arachidonic acid followed by mass spectrometry. The format is biochemical. Here is the method: Compounds of formula (I) were profiled for MAGL inhibitory activity by determining the enzymatic activity by following the hydrolysis of the natural substrate 2-arachidonoylglycerol (2-AG) resulting in arachidonic acid, which can be followed by mass spectrometry. This assay is hereinafter abbreviated “2-AG assay”. The 2-AG assay was carried out in 384 well polypropylene assay plates. […] Compound dilutions were added to MAGL protein in assay buffer (50 mM TRIS, 1 mM EDTA, 0.01% (v/v) Tween-20, 2.5% (v/v) DMSO). After shaking, the plate was incubated for 15 min at RT. To start the reaction, 2-arachidonoylglycerol in assay buffer was added. The final concentrations in the assay was […] for MAGL protein and 8 μM 2-arachidonoylglyerol. After shaking and 30 min incubation at RT, the reaction was quenched by the addition of two assay volumes of acetonitrile containing 4 μM of d8-arachidonic acid. The amount of arachidonic acid formed was traced by an online SPE system (Agilent Rapidfire) coupled to a triple quadrupole mass spectrometer. A C18 SPE cartridge (Agilent G9205A) was used in an acetonitrile/water liquid setup. […] The activity of the compounds was calculated based on the ratio of intensities [arachidonic acid/d8-arachidonic acid].

The IC50 is the midpoint of a concentration-inhibition curve. Read a high IC50 as weaker potency.

As for `O=C(N1CC2(CC(Cc3cnn4cc(C(F)(F)F)cnc34)C2)C1)N1CC2(CC(n3cnc(C4CC4)n3)C2)C1` [Example 360, [6-(3-cyclopropyl-1,2,4-triazol-1-yl)-2-azaspiro[3.3]heptan-2-yl]-[6-[[6-(trifluoromethyl)pyrazolo[1,5-a]pyrimidin-3-yl]methyl]-2-azaspiro[3.3]heptan-2-yl]methanone], the 50% inhibitory concentration (IC50) came out at 0.3 nM. To `O=C(N1CC2(CC(Cn3cnc(C(F)(F)F)n3)C2)C1)N1CC2(CC(c3cc(C4CC4)n[nH]3)C2)C1` [Example 126, [6-(3-cyclopropyl-1H-pyrazol-5-yl)-2-azaspiro[3.3]heptan-2-yl]-[6-[[3-(trifluoromethyl)-1,2,4-triazol-1-yl]methyl]-2-azaspiro[3.3]heptan-2-yl]methanone] belongs 0.78 nM; to `Cn1ncc(CC2CC3(C2)CN(C(=O)N2CC4(CC(n5cnc(C6(O)CC6)n5)C4)C2)C3)c1C(F)(F)F` [Example 1, [6-[3-(1-hydroxycyclopropyl)-1,2,4-triazol-1-yl]-2-azaspiro[3.3]heptan-2-yl]-[6-[[1-methyl-5-(trifluoromethyl)pyrazol-4-yl]methyl]-2-azaspiro[3.3]heptan-2-yl]methanone], 0.47 nM.

`O=C(N1CC2(CC(Cc3cc(C(F)F)n[nH]3)C2)C1)N1CC2(CC(c3cc(C4CC4)n[nH]3)C2)C1` [Example 294, [6-(3-cyclopropyl-1H-pyrazol-5-yl)-2-azaspiro[3.3]heptan-2-yl]-[6-[[3-(difluoromethyl)-1H-pyrazol-5-yl]methyl]-2-azaspiro[3.3]heptan-2-yl]methanone] had an IC50 of 0.33 nM.

In turn, `Cc1nn(CC(F)(F)F)cc1CN1CC2(C1)CN(C(=O)N1CC3(CC(n4cnc(C(F)(F)F)n4)C3)C1)C2` [Example 112, [6-[[3-methyl-1-(2,2,2-trifluoroethyl)pyrazol-4-yl]methyl]-2,6-diazaspiro[3.3]heptan-2-yl]-[6-[3-(trifluoromethyl)-1,2,4-triazol-1-yl]-2-azaspiro[3.3]heptan-2-yl]methanone] had an IC50 of 640 nM. This IC50 is about 1900-fold higher than that of the compound before. In the case of `O=C(N1CC2(CC(n3cnc(C(F)(F)F)n3)C2)C1)N1CC2(CN(Cc3ccnn3CC(F)F)C2)C1` [Example 260, [6-[[2-(2,2-difluoroethyl)pyrazol-3-yl]methyl]-2,6-diazaspiro[3.3]heptan-2-yl]-[6-[3-(trifluoromethyl)-1,2,4-triazol-1-yl]-2-azaspiro[3.3]heptan-2-yl]methanone] it was 167 nM. To `Cn1nc(C(F)(F)F)cc1CN1CCC2(CC1)CN(C(=O)N1CC3(CC(c4cc(C5CC5)n[nH]4)C3)C1)C2` [Example 24] belongs 6.51 nM. In the case of `CC(C)(C)c1conc1CN1CC2(C1)CN(C(=O)N1CC3(CC(n4cnc(C(F)(F)F)n4)C3)C1)C2` [Example 255, [6-[(4-tert-butylisoxazol-3-yl)methyl]-2,6-diazaspiro[3.3]heptan-2-yl]-[6-[3-(trifluoromethyl)-1,2,4-triazol-1-yl]-2-azaspiro[3.3]heptan-2-yl]methanone] it was 18.7 nM; in that of `O=C(N1CC2(CC(Cc3cn(C4CC4)nc3C(F)(F)F)C2)C1)N1CC2(CC(n3cnc(C4(O)CC4)n3)C2)C1` [Example 63, [6-[[1-cyclopropyl-3-(trifluoromethyl)pyrazol-4-yl]methyl]-2-azaspiro[3.3]heptan-2-yl]-[6-[3-(1-hydroxycyclopropyl)-1,2,4-triazol-1-yl]-2-azaspiro[3.3]heptan-2-yl]methanone], 18.3 nM; in that of `O=C(N1CC2(CC(Cn3cc(C(F)(F)F)nn3)C2)C1)N1CC2(CC(c3cc(C4CC4)n[nH]3)C2)C1` [Example 103, [6-(3-cyclopropyl-1H-pyrazol-5-yl)-2-azaspiro[3.3]heptan-2-yl]-[6-[[4-(trifluoromethyl)triazol-1-yl]methyl]-2-azaspiro[3.3]heptan-2-yl]methanone], 1.63 nM.

With `N#Cc1cnn(CC2CC3(C2)CN(C(=O)N2CC4(CC(c5cc(C6CC6)n[nH]5)C4)C2)C3)c1` [Example 37], the midpoint of inhibition, the IC50, lay at 4.3 nM. To `O=C(N1CC2(CCN(Cc3nc(C(F)(F)F)cs3)CC2)C1)N1CC2(CC(n3cnc(C4(O)CC4)n3)C2)C1` [Example 175, [6-[3-(1-hydroxycyclopropyl)-1,2,4-triazol-1-yl]-2-azaspiro[3.3]heptan-2-yl]-[7-[[4-(trifluoromethyl)thiazol-2-yl]methyl]-2,7-diazaspiro[3.5]nonan-2-yl]methanone] belongs 81.2 nM; to `O=C(N1CC2(CC(n3cnc(C(F)(F)F)n3)C2)C1)N1CC2(CN(Cc3ccn(CCC(F)(F)F)n3)C2)C1` [Example 312, [6-[3-(trifluoromethyl)-1,2,4-triazol-1-yl]-2-azaspiro[3.3]heptan-2-yl]-[6-[[1-(3,3,3-trifluoropropyl)pyrazol-3-yl]methyl]-2,6-diazaspiro[3.3]heptan-2-yl]methanone], 183 nM; to `O=C(N1CC2(CC(n3cnc(C(F)(F)F)n3)C2)C1)N1CC2(CN(Cc3nc(C(F)(F)F)co3)C2)C1` [Example 216], 102 nM. To `O=C(N1CC2(CC(n3cnc(C4CC4)n3)C2)C1)N1CC2(CN(Cc3nc(-c4ccccc4)no3)C2)C1` [Example 245, [6-(3-cyclopropyl-1,2,4-triazol-1-yl)-2-azaspiro[3.3]heptan-2-yl]-[6-[(3-phenyl-1,2,4-oxadiazol-5-yl)methyl]-2,6-diazaspiro[3.3]heptan-2-yl]methanone] belongs 1.2 nM; to `O=C(N1CC2(CC(Cc3nsc(C(F)(F)F)n3)C2)C1)N1CC2(CC(n3cnc(C4(O)CC4)n3)C2)C1` [Example 22, [6-[3-(1-hydroxycyclopropyl)-1,2,4-triazol-1-yl]-2-azaspiro[3.3]heptan-2-yl]-[6-[[5-(trifluoromethyl)-1,2,4-thiadiazol-3-yl]methyl]-2-azaspiro[3.3]heptan-2-yl]methanone], 2.57 nM; to `CC(C)(C)n1nccc1CN1CC2(C1)CN(C(=O)N1CC3(CC(n4cnc(C5CC5)n4)C3)C1)C2` [Example 276, [6-[(2-tert-butylpyrazol-3-yl)methyl]-2,6-diazaspiro[3.3]heptan-2-yl]-[6-(3-cyclopropyl-1,2,4-triazol-1-yl)-2-azaspiro[3.3]heptan-2-yl]methanone], 13.6 nM. In the case of `O=C(N1CC2(CC(n3cnc(C4CC4)n3)C2)C1)N1CC2(CN(Cc3cnn(CC(F)(F)F)n3)C2)C1` [Example 196, [6-(3-cyclopropyl-1,2,4-triazol-1-yl)-2-azaspiro[3.3]heptan-2-yl]-[6-[[2-(2,2,2-trifluoroethyl)triazol-4-yl]methyl]-2,6-diazaspiro[3.3]heptan-2-yl]methanone] it was 79 nM. `Cn1cc(OC2CC3(C2)CN(C(=O)N2CC4(CC(n5cnc(C6(O)CC6)n5)C4)C2)C3)cn1` [Example 88, [6-[3-(1-hydroxycyclopropyl)-1,2,4-triazol-1-yl]-2-azaspiro[3.3]heptan-2-yl]-[6-(1-methylpyrazol-4-yl)oxy-2-azaspiro[3.3]heptan-2-yl]methanone] yielded an IC50 of 1370 nM. `CCn1nc(C(F)(F)F)cc1CN1CC2(C1)CN(C(=O)N1CC3(CC(n4cnc(C5CC5)n4)C3)C1)C2` [Example 170, [6-(3-cyclopropyl-1,2,4-triazol-1-yl)-2-azaspiro[3.3]heptan-2-yl]-[6-[[2-ethyl-5-(trifluoromethyl)pyrazol-3-yl]methyl]-2,6-diazaspiro[3.3]heptan-2-yl]methanone] had an IC50 of 2.23 nM. In the case of `O=C(N1CC2(CC(n3cnc(C4(O)CC4)n3)C2)C1)N1CC2(CN(Cc3cnc(C(F)(F)F)s3)C2)C1` [Example 19] it was 34.5 nM. In the case of `O=C(N1CC2(CC(n3cnc(C4(O)CC4)n3)C2)C1)N1CC2(CN(Cc3ncc(C(F)F)s3)C2)C1` [Example 186] it was 84.1 nM; in that of `CC(C)(C)c1csc(CN2CC3(C2)CN(C(=O)N2CC4(CC(n5cnc(C6CC6)n5)C4)C2)C3)n1` [Example 201, [6-[(4-tert-butylthiazol-2-yl)methyl]-2,6-diazaspiro[3.3]heptan-2-yl]-[6-(3-cyclopropyl-1,2,4-triazol-1-yl)-2-azaspiro[3.3]heptan-2-yl]methanone], 0.64 nM. Take `O=C(N1CC2(CC(Cc3cn(CC(F)(F)F)nn3)C2)C1)N1CC2(CC(n3cnc(C4(O)CC4)n3)C2)C1` [Example 254, [6-[3-(1-hydroxycyclopropyl)-1,2,4-triazol-1-yl]-2-azaspiro[3.3]heptan-2-yl]-[6-[[1-(2,2,2-trifluoroethyl)triazol-4-yl]methyl]-2-azaspiro[3.3]heptan-2-yl]methanone]: the half-inhibitory concentration (IC50) came out at 44.9 nM. This IC50 is about 70-fold higher than that of the compound before. For `Cc1cc(C(F)(F)F)nn1CC1CC2(C1)CN(C(=O)N1CC3(CC(n4cnc(C(F)(F)F)n4)C3)C1)C2` [Example 68, [6-[[5-methyl-3-(trifluoromethyl)pyrazol-1-yl]methyl]-2-azaspiro[3.3]heptan-2-yl]-[6-[3-(trifluoromethyl)-1,2,4-triazol-1-yl]-2-azaspiro[3.3]heptan-2-yl]methanone], the IC50 was 5.8 nM.
